The results in this text go back to publication doi:10.1101/2025.02.07.637162, “Lactate dehydrogenase is the Achilles’ heel of Lyme disease bacterium Borreliella burgdorferi” (bioRxiv, 2025).

Experiment [1] has as its target T1, BbLDH (BB_0087, lactate dehydrogenase) (Borreliella burgdorferi, UniProt O51114).
T1 construct: gene ldh; full-length, 316 residues
Nature of the experiment: X-ray crystal structure, […] Å; allosteric activation of enzyme activity. It counts as binding.

The target in experiment [2] is T1, BbLDH (BB_0087, lactate dehydrogenase). Kind of experiment: X-ray crystal structure, […] Å. It counts as binding.

The structures appear in SMILES notation.

T1 sequence (O51114 whole entry): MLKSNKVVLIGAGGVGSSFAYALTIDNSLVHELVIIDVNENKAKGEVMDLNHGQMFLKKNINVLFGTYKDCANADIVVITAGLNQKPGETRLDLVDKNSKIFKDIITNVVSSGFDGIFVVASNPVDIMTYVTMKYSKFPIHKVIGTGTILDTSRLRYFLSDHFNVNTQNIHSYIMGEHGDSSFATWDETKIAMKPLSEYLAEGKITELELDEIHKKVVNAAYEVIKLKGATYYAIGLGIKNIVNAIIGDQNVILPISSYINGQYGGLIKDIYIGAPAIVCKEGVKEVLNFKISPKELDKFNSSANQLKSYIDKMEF

In the case of `O=P(O)(O)OC[C@H]1OC(O)(COP(=O)(O)O)[C@@H](O)[C@@H]1O` (some centres unmarked) [FBP, fructose 1,6-bisphosphate], in experiment [1], the “X-ray crystal structure, 2.1 Å; allosteric activation of enzyme activity” value is “Salt bridge and hydrogen bonding residues that interact with FBP in BbLDH (chain A and C, pink and yellow)”. Turning to `NC(=O)C1=CN([C@@H]2O[C@H](COP(=O)(O)OP(=O)(O)OC[C@H]3O[C@@H](n4cnc5c(N)ncnc54)[C@H](O)[C@@H]3O)[C@@H](O)[C@H]2O)C=CC1` [NADH], in experiment [2], the “X-ray crystal structure, 2.1 Å” value was “Both structures were determined in the presence of NADH and the pyruvate analog oxamate (OXA)”.
